The source of these data is article PMC6686156, “Discovery of Sustainable Drugs for Neglected Tropical Diseases: Cashew Nut Shell Liquid (CNSL)‐Based Hybrids Target Mitochondrial Function and ATP Production in Trypanosoma brucei” (Chemmedchem, 2019).

One series concerns the target T. brucei GAPDH (Trypanosoma brucei brucei, UniProt P22512). The series is described as follows: Inhibition of T. brucei GAPDH. Format: biochemical. As to conditions: fixed concentration of 10 μM; data not shown; read-out: decrease of GAPDH activity. From the text: […]. […] Limitations of solubility prevented us from testing the series at higher concentrations. However, it must be noted that we cannot exclude the possibility of a low‐affinity inhibition of GAPDH contributing to the trypanocidal effect, as compounds may accumulate to relatively high concentrations within the parasite.

Series [1] relates to T. b. brucei 427WT bloodstream trypomastigotes. As to the kind of experiment: microbe, parasite or virus in culture. Format: cell-based, Trypanosoma brucei brucei. The settings on record: for EC50: Trypanosoma brucei; for SI, selectivity index=EC50(HFF)/EC50(T. b. b. WT): HFF versus T. b. b. 427WT; for RF, resistance factor (+ 5 mM glycerol versus control): Table 2. How it is done: (§1) Organisms and culture media: Only bloodstream trypomastigotes of T. b. brucei were used throughout this study. […] Parasites were cultured in vented flasks at 37 °C and 5 % CO2 atmosphere and they were passaged every 3 days. Bloodstream forms of T. congolense savannah‐type strain IL3000 were cultured in basal MEM medium, supplemented by 10 % fresh goat serum, 14 μL of β‐mercaptoethanol, 800 μL of 200 mM glutamine solution, and 10 mL of penicillin/streptomycin solution per liter of medium (pH 7.3).48 T. congolense were cultured in six‐well plates at 34 °C and 5 % CO2.
(§2) In brief, the assays were performed in 96‐well plates with 2×10^5 cells per well for T. b. brucei or 5×10^5 cells per well for T. congolense, in their respective culture media. First, 200 μL of test compounds’ solutions (400 μM, in T. brucei or T. congolense medium as appropriate) was added to the first well of each 12‐well row, from which doubling dilutions were conducted over one row per test compound. […] Fluorescence was detected using a FLUOstar Optima (BMG Labtech, Durham, NC, USA) at wavelength of 540 nm (excitation), 590 nm (emission). EC50 values were calculated by nonlinear regression using an equation for a sigmoidal dose–response curve with variable slope using Prism 5.0 (GraphPad Software Inc., San Diego, CA, USA).

Series [2] in a line: Cytotoxicity assay on human foreskin fibroblast (HFF), resazurin. Format: cell-based. As to conditions: human foreskin fibroblast (HFF) cells, tested up to 200 μM, read-out: HFF cytotoxic activity (EC50). How it is done:
Cytotoxicity assay on human foreskin fibroblast (HFF): Toxicity of test compounds to mammalian cells was carried out using the resazurin assay previously described31 with slight modifications as follows. HFF cells were grown in a culture medium containing 500 mL of Dulbecco's modified Eagle's medium (DMEM; Sigma), 50 mL newborn calf serum (NBCS; Gibco), 5 mL penicillin/streptomycin (Gibco), and 5 mL of L‐Glutamax ([…], Gibco), at 37 °C and 5 % CO2 in vented flasks and passaged at 80–85 % of confluence. For the cytotoxicity assay, cells were suspended at 3×10^5 cells mL^−1 and 100 μL aliquots were added to each well of a 96‐well plate. The plate was incubated at 37 °C and 5 % CO2 for 24 h to allow cell adhesion. Serial test compounds dilution was performed in a different 96‐well plate and 100 μL of each dilution was transferred to each well containing cells, resulting in exposure of cells to 200–0.2 μM of test compound. Phenylarsine oxide (Sigma–Aldrich) was used as positive control and drug‐free incubation as negative control. The plates were incubated at 37 °C and 5 % CO2 for an additional 30 h, at which point 10 μL of resazurin solution ([…] in PBS) was added, followed by a final incubation for 24 h. The plates were read and the data analyzed as described above for the trypanosome assay.
On the technique in general: The colour change of resazurin is a common sign of viable cells or microbes.

The test system of a further series is T. b. brucei B48. The series is described as follows: microbe, parasite or virus in culture. Format: cell-based, Trypanosoma brucei brucei. As to conditions: for RF, resistance factor relative to WT (B48): B48 versus 427WT; for EC50: Trypanosoma brucei, read-out: EC50 T. b. b. B48. The procedure: as §1, §2
For series [3], the system named is T. b. brucei aqp2/aqp3‐KO. As to the kind of experiment: microbe, parasite or virus in culture. As to conditions: for EC50: Trypanosoma brucei, read-out: EC50 T. b. b. aqp2/aq3‐KO; for RF, resistance factor relative to WT (aqp2/aqp3-KO): aqp2/aqp3-KO versus 427WT. Format: cell-based, Trypanosoma brucei brucei. The procedure: as §1, §2
The subject of series [4] is T. b. brucei 427WT trypomastigotes. The series is described as follows: Growth curve / time-to-kill determination. Format: cell-based, Trypanosoma brucei brucei. The settings on record: 1× EC50; for time to sterilize the culture: 427WT seeded at 1×10^5 cells/mL. How it is done: To determine whether 18–22 inhibited growth or cell division rather than causing cell death of T. b. brucei, cell growth curves were performed by treating 427WT trypomastigotes with concentrations corresponding to 0.5×, 1×, and 2× the EC50 value, using untreated cells as a control. Incubation with test compounds at half the EC50 (Figure 3 A) caused mostly some delayed growth phenotype, with rates increasing after 10 or 20 h. […] At double the concentration (Figure 3 C), all the hybrids cleared the culture between the 4 h and 8 h time points, with the cell populations rapidly declining between 2 and 4 h.
Untreated parasites, used as control, were grown in parallel. The cells were counted by using hemocytometer cell counter (cell count/mL×10^4) at 0, 2, 4, 8, 12, 24, 28, 32, 36, 48 h of incubation. Each experiment was performed as two independent replicates, and each sample was counted at least twice.

The test system of the next series is T. congolense IL3000 WT. As to the kind of experiment: In vitro drug susceptibility assay (resazurin), T. congolense. Format: cell-based. As to conditions: bloodstream forms, read-out: EC50 T. c. IL3000 WT. The procedure:
as §1, §2

Setting [5] is: 72 h, bloodstream trypomastigotes, resazurin, 48 h + 24 h, n=4, read-out: EC50 T. b. b. 427WT.
Where [6] appears, read: Table 2, 5 mM glycerol in medium, average±SEM of three, read-out: EC50 s427WT + 5 mM glycerol.
Setting [7] is: Table 2, no glycerol, average±SEM of three, read-out: EC50 Control s427WT.

Molecules are shown by their SMILES. Where two headings read alike, the source gives them in different places. Bounds are passed on as bounds.

Chain of T. brucei GAPDH (P22512 whole entry): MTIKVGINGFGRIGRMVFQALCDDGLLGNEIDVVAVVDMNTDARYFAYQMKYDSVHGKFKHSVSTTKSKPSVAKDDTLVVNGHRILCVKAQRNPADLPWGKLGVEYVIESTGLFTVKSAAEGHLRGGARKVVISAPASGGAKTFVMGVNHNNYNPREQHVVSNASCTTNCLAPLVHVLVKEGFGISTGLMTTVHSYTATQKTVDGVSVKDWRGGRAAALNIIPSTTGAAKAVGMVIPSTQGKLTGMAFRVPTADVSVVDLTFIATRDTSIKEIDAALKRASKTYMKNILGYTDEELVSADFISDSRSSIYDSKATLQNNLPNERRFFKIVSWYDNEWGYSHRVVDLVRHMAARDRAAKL

Consider `CCCCCCCCCCCCCCCc1cccc(OC2=CC(=O)c3ccccc3C2=O)c1C(=O)OC` [Compound 8, Methyl 2‐((1,4‐dioxo‐1,4‐dihydronaphthalen‐2‐yl)oxy)‐6‐pentadecylbenzoate], for which the inhibition at 10 µM at T. brucei GAPDH was below 15%. Further, the EC50 in series [1] (setting [5]) was above 200 µM.
Taken in the same sequence, the figures for `CCCCCCCCCCCCCCCc1cccc(OC2=CC(=O)c3cccc(OC)c3C2=O)c1C(=O)OC` [Compound 9, Methyl 2‐((8‐methoxy‐1,4‐dioxo‐1,4‐dihydronaphthalen‐2‐yl)oxy)‐6 pentadecylbenzoate] were below 15% and above 200 µM.
Consider `CCCCCCCCCCCCCCCc1cccc(OC2=CC(=O)c3c(OC)cccc3C2=O)c1C(=O)OC` [Compound 10, Methyl 2‐((5‐methoxy‐1,4‐dioxo‐1,4‐dihydronaphthalen‐2‐yl)oxy)‐6‐pentadecylbenzoate], for which the inhibition at 10 µM on T. brucei GAPDH was below 15%. For the same compound, the EC50 in series [1] (setting [5]) is above 200 µM.
Taken in the same sequence, the figures for `CCCCCCCCCCCCCCCc1cccc(OC2=CC(=O)c3cccc(O)c3C2=O)c1C(=O)OC` [Compound 11, Methyl 2‐((8‐hydroxy‐1,4‐dioxo‐1,4‐dihydronaphthalen‐2‐yl)oxy)‐6‐pentadecylbenzoate] were below 15% and above 200 µM.
Taken in the same sequence, the figures for `CCCCCCCCCCCCCCCc1cccc(OC2=CC(=O)c3c(O)cccc3C2=O)c1C(=O)OC` [Compound 12, Methyl 2‐((5‐hydroxy‐1,4‐dioxo‐1,4‐dihydronaphthalen‐2‐yl)oxy)‐6‐pentadecylbenzoate] were below 15% and above 200 µM.
For `CCCCCCCCCCCCCCCc1cccc(OC2=CC(=O)c3ccccc3C2=O)c1` [Compound 13, 2‐(3‐Pentadecylphenoxy)naphthalene‐1,4‐dione], at T. brucei GAPDH, the inhibition at 10 µM is below 15%. Also, the EC50 in series [1] (setting [5]) was above 200 µM.
Regarding `CCCCCCCCCCCCCCCc1cccc(OC2=CC(=O)c3cccc(OC)c3C2=O)c1` [Compound 14, 8‐Methoxy‐2‐(3‐pentadecylphenoxy)naphthalene‐1,4‐dione], at T. brucei GAPDH, the inhibition at 10 µM is below 15%. Also, in series [1] (setting [5]), the EC50 is above 200 µM.
Regarding `CCCCCCCCCCCCCCCc1cccc(OC2=CC(=O)c3c(OC)cccc3C2=O)c1` [Compound 15, 5‐Methoxy‐2‐(3‐pentadecylphenoxy)naphthalene‐1,4‐dione], on T. brucei GAPDH, the inhibition at 10 µM is below 15%. The EC50 in series [1] (setting [5]) was above 200 µM.
Take `CCCCCCCCCCCCCCCc1cccc(OC2=CC(=O)c3cccc(O)c3C2=O)c1` [Compound 16, 8‐Hydroxy‐2‐(3‐pentadecylphenoxy)naphthalene‐1,4‐dione]: the inhibition at 10 µM on T. brucei GAPDH is below 15%. Besides, the EC50 in series [1] (setting [5]) was above 200 µM.
Taken in the same sequence, the figures for `CCCCCCCCCCCCCCCc1cccc(OC2=CC(=O)c3c(O)cccc3C2=O)c1` [Compound 17, 5‐Hydroxy‐2‐(3‐pentadecylphenoxy)naphthalene‐1,4‐dione] were below 15% and above 200 µM.
For the compound `O=C1C=C(Oc2cccc(CCCCCCCCO)c2)C(=O)c2ccccc21` [Compound 18, 2‐(3‐(8‐Hydroxyoctyl)phenoxy)naphthalene‐1,4‐dione], in series [2], the EC50 at 54 h is above 200 µM. Further, at T. brucei GAPDH, the inhibition at 10 µM was below 15%. Further, the “RF, resistance factor relative to WT (B48)” value with T. b. brucei B48 came to 0.95. The EC50 in the series with T. b. brucei B48 is 8.6 ± 2.4 µM; in series [3], 10.1 ± 2.2 µM; in series [1] (setting [5]) it was 9.1 ± 1.4 µM; in series [1] (setting [6]), 31.2 ± 0.6 µM; in series [1] (setting [7]), 30 ± 0.08 µM. Also, the “RF, resistance factor relative to WT (aqp2/aqp3-KO)” value in series [3] came to 1.1. Besides, in series [1], the “SI, selectivity index=EC50(HFF)/EC50(T. b. b. WT)” value is reported as above 21.98. In addition, in series [1], the “RF, resistance factor (+ 5 mM glycerol versus control)” value was determined as 1.04. For the same compound, in series [4], the “time to sterilize the culture” value is reported as 2 h.
Take `COc1cccc2c1C(=O)C(Oc1cccc(CCCCCCCCO)c1)=CC2=O` [Compound 19, 2‐(3‐(8‐Hydroxyoctyl)phenoxy)‐8‐methoxynaphthalene‐1,4‐dione]: in series [2], the EC50 at 54 h is above 200 µM. In addition, the inhibition at 10 µM on T. brucei GAPDH was below 15%. Besides, the “RF, resistance factor relative to WT (B48)” value with T. b. brucei B48 is 0.98. The EC50 with T. b. brucei B48 was found to be 14.6 ± 1.7 µM; in series [3], 17.7 ± 1.5 µM; in series [1] (setting [5]) it was 15 ± 1.3 µM; in series [1] (setting [6]) it was 16.3 ± 0.4 µM; in series [1] (setting [7]) it was 16.8 ± 0.06 µM. Also, the “RF, resistance factor relative to WT (aqp2/aqp3-KO)” value in series [3] is 1.2. Also, in series [1], the “SI, selectivity index=EC50(HFF)/EC50(T. b. b. WT)” value is reported as above 13.3. Further, in series [1], the “RF, resistance factor (+ 5 mM glycerol versus control)” value is listed as 0.97. Also, the “time to sterilize the culture” value in series [4] was determined as 8 h.
With `O=C1C=C(Oc2cccc(CCCCCCCCO)c2)C(=O)c2c(O)cccc21` [Compound 21, 8‐Hydroxy‐2‐(3‐(8‐hydroxyoctyl)phenoxy)naphthalene‐1,4‐dione], the EC50 at 54 h in series [2] was above 200 µM. Besides, the inhibition at 10 µM on T. brucei GAPDH was below 15%. In the series with T. b. brucei B48, the “RF, resistance factor relative to WT (B48)” value turned out to be 0.91 and the EC50 worked out at 36.9 ± 5.3 µM. Also, in series [3], the EC50 came out at 46.7 ± 7.7 µM and the “RF, resistance factor relative to WT (aqp2/aqp3-KO)” value was 1.2. The “SI, selectivity index=EC50(HFF)/EC50(T. b. b. WT)” value in series [1] is above 5. Further, the EC50 in series [1] (setting [5]) was determined as 40.5 ± 4.9 µM. Besides, the “effect on cell growth” value in series [4] (over 48 h) is listed as “decreased the growth rate substantially, with a nearly trypanostatic effect over the first 12 h”.
For `N=C(N)c1ccc(N=NNc2ccc(C(=N)N)cc2)cc1` [DA, Diminazene aceturate, reference compound], the EC50 in the series with T. congolense IL3000 WT was found to be 0.17 ± 0.0003 µM.
With `N=C(N)c1ccc(OCCCCCOc2ccc(C(=N)N)cc2)cc1` [PMD, Pentamidine, reference compound], in the series with T. b. brucei B48, the “RF, resistance factor relative to WT (B48)” value was 339 and the EC50 stood at 3.1 ± 0.7 µM. Further, in series [3], the EC50 came to 0.2 ± 0.01 µM and the “RF, resistance factor relative to WT (aqp2/aqp3-KO)” value came to 22.0. In series [1] (setting [5]), the EC50 turned out to be 0.0093 ± 0.0001 µM.
